Data reported in article PMC10180113, “Thermodynamic and Kinetic Stabilities of Al(III) Complexes with N2O3 Pentadentate Ligands” (Molecules, 2023).
Read-outs that look alike come from different tables or passages of the source. Marks after values point to notes of the source that are not given here.

Assays:
[1] = Protonation constants of the ligands (pH-potentiometry, spectrophotometry); type: physicochemical; conditions: 0.15 M NaNO3, 25 °C; for logK1^H / logK2^H / logK3^H / logK4^H: pH-potentiometry; for ΣlogK1–4^H: total basicity
Experimental: Since the thermodynamic properties of any metal complex proposed for in vivo applications must be characterized by high thermodynamic stability, the equilibrium properties of AMPTA, AMPDA-HB, and CD3A-Bn ligands and their Al(III) complexes were investigated in detail. First, the protonation constants of the ligands, defined by Equation (1), were determined by pH-potentiometry and the logKi^H values are listed in Table 1. (1) KiH=HiL/Hi−1LH^+
The protonation constants of the AMPTA, AMPDA-HB, and CD3A-Bn and those of the Al(III) complexes were determined by pH-potentiometric titration. The metal-to-ligand concentration ratio was 1:1 (the concentration of the ligand was generally 0.002 M). For the pH measurements and titrations, a Metrohm 888 Titrando automatic titration workstation with a Metrohm-6.0234.110 combined electrode was used. Equilibrium measurements were carried out at a constant ionic strength (0.15 M NaNO3) in 6 mL samples at 25 °C under magnetic stirring and N2 bubbling. The titrations were made in the pH range 1.7–12.0. KH-phthalate (pH = 4.005) and borax (pH = 9.177) buffers were used to calibrate the pH meter. For the calculation of [H^+] from the measured pH values, the method proposed by Irving et al. was used. A 0.01 M HNO3 solution was titrated with the standardized NaOH solution in the presence of 0.15 M NaNO3 ionic strength. The differences (A) between the measured (pHread) and calculated pH (−log[H^+]) values were used to obtain the equilibrium H^+ concentration from the pH values measured in the titration experiments (A = −0.035). The waiting time between two pH measurements was 60 s. For the equilibrium calculations, the stoichiometric water ionic product (pKw) was also needed to calculate [OH^−] values under basic conditions. The VNaOH-pHread data pairs of the HNO3NaOH titration obtained in the pH range 10.5–12.0 were used to calculate the pKw value (pKw = 13.78). The protonation and stability constants were calculated with the PSEQUAD program.

[2] = Stability and protonation constants of the Al(III) complexes (pH-potentiometry, 27Al NMR); type: physicochemical; conditions: 0.15 M NaNO3, 25 °C; for logβAlLH−1: cumulative stability constant of AlLH−1; for logKAlLH−1: protonation constant of AlLH−1 species, pH-potentiometry; for logKAlL: stability constant of Al(III) complex, 27Al NMR spectroscopy
Experimental: The stability and protonation constants of the Al(III) complexes of AMPTA, AMPDA-HB, and CD3A-Bn, defined by Equations (2)–(4), were investigated by pH-potentiometry and by multinuclear NMR spectroscopy at 25 °C in 0.15 M NaNO3 solution. (2) KAlL=AlL/Al^3+L (3) KAlLH−1=AlL/AlLH−1H^+ (4) Al^3++L+OH^− ⇌AlLH−1 βAlLH−1=AlLH−1/Al^3+LOH^−
In order to avoid the hydrolysis of the Al(III) ion, the pH-potentiometric titration of the pre-prepared complexes of AMPTA, AMPDA-HB, and CD3A-Bn ligands was performed at pH > 4.0.
To determine the stability constant of the Al(III) complexes, the ^1H and ^27Al NMR spectra of the Al^3+-AMPTA, Al^3+-AMPDA-HB, and Al^3+-CD3A-Bn systems were recorded in the pH range 8.0–12. ^1H and ^27Al NMR spectra of the three systems are shown in Figures S1–S6.
The analysis of the ^27Al NMR data was used for the calculation of the stability constants of the [Al(AMPTA)], [Al(AMPDA-HB)], and [Al(CD3A-Bn)] complexes. Integrals of the ^27Al NMR signal ([Al(OH)4]^− at 81 ppm, ν½ = 11 Hz; see Figures S2, S4 and S6) were used for the calculation of the logKAlL value of the three Al complexes by taking into account the protonation constant of the AlLH−1 species (Equation (3), Table 1) and the known hydrolysis constants of the free Al^3+ ion (logK[Al(OH)]^2+ = −4.60, logK[Al(OH)2]^+ = −9.09, logK[Al(OH)3] = −14.94 and logK[Al(OH)4]^− = −23.08, logK[Al2(OH)2]^4+ = −8.0, logK[Al3(OH)4]^5+ = −13.47, logK[Al13(OH)32]^7+ = −104.81). […] The equilibrium data obtained by pH-potentiometry and multinuclear NMR spectroscopy were used to calculate the species distribution diagram for the Al(III)-AMPTA, Al(III)AMPDA-HB, and Al(III)-CD3A-Bn systems (Figure 1, Figure 2 and Figure 3). The amount of [Al(OH)4]^− species determined by ^27Al NMR studies (Figures S2, S4 and S6) is also shown in Figure 2, Figure 3 and Figure 4.
The protonation constants of the AMPTA, AMPDA-HB, and CD3A-Bn and those of the Al(III) complexes were determined by pH-potentiometric titration. The metal-to-ligand concentration ratio was 1:1 (the concentration of the ligand was generally 0.002 M). For the pH measurements and titrations, a Metrohm 888 Titrando automatic titration workstation with a Metrohm-6.0234.110 combined electrode was used. Equilibrium measurements were carried out at a constant ionic strength (0.15 M NaNO3) in 6 mL samples at 25 °C under magnetic stirring and N2 bubbling. The titrations were made in the pH range 1.7–12.0. KH-phthalate (pH = 4.005) and borax (pH = 9.177) buffers were used to calibrate the pH meter. For the calculation of [H^+] from the measured pH values, the method proposed by Irving et al. was used. A 0.01 M HNO3 solution was titrated with the standardized NaOH solution in the presence of 0.15 M NaNO3 ionic strength.

[3] = design: method as in doi:10.1021/ac60305a041, doi:10.1021/ja00792a018; conditions: 0.5 M Me4NCl, 25 °C; cited from earlier work
[4] = cited from earlier work
[5] = design: method as in doi:10.1007/s11144-015-0892-6; conditions: 1.0 M NaCl, cited from earlier work
[6] = design: method as in PMID 31830368; conditions: up to 4 h in PBS, serum, and EDTA solutions; cited from earlier work
[7] = design: method as in PMID 31830368; conditions: cited from earlier work
[8] = Protonation constants of the ligands (pH-potentiometry, spectrophotometry); type: physicochemical; conditions: 0.15 M NaNO3, 25 °C
[9] = 0.1 M KNO3, 25 °C, cited from earlier work; for logKAlL: stability constant of Al(III) complex

## O=C(O)CN(CC(=O)O)[C@@H]1CCCC[C@H]1N(CC(=O)O)Cc1ccccc1 [CD3A-Bn, trans-1,2-diaminocyclohexane-N-benzyl-N,N′,N′-triacetic acid]
[1]
  logK1^H: 10.72 (2)
  logK2^H: 5.22 (3)
  logK3^H: 3.34 (3)
  logK4^H: 0.59 (9)
  ΣlogK1–4^H: 19.87
[2]
  logβAlLH−1: 9.3 (1)
  logKAlLH−1: 5.20 (4)
  logKAlL: 14.5 (1) ^d

## O=C([O-])CN(CCN(CC(=O)O)CC(=O)O)CC(=O)O.[Na+] [[Na(EDTA)]^3−]
[3]
  logKNaL: 1.43

## O=C([O-])CN(CC(=O)O)C1CCCCC1N(CC(=O)O)CC(=O)O.[Na+] (stereo not shown) [[Na(CDTA)]^3−]
[3]
  logKNaL: 4.66

## Oc1ccccc1 [phenol]
[4]; 0.1 M NaClO4
  logK^H: 10.0

## O=C([O-])CN1CCN(CC(=O)[O-])CCN(CC(=O)[O-])CC1.[Al+3] [[Al(NOTA)]]
[5]; 25 °C
  KAl(L)H−2 (KAl(NOTA)H−1 for [Al(NOTA)]): 1.6 × 10^12 c M^−1
  k0: 2e-06 s⁻¹
  k1 (kOH for [Al(NOTA)]): 6.8 × 10^−6 b M^−1 s^−1
  logKAl(L)H−2: 12.2
[5]; pH 7.4, 25 °C
  kd (pH = 7.4): 2 × 10^−6 s^−1
  t1/2 (pH = 7.4), dissociation half-life (ln2/kd): 94 h

## O=C(O)CN(Cc1ccccc1O)CC1CCCCN1CC(=O)O (stereo not shown) [AMPDA-HB]
[6]
  stability in vitro of the [Al18F]-labelled complex: high stability
[1]
  logK3^H: 4.94 (5)
  logK4^H: 2.01 (5)
  ΣlogK1–4^H: 28.87
[4]; 0.15 M NaCl, 25 °C
  logK1^H: 12.4
  logK2^H: 10.14
  logK3^H: 4.76
  logK4^H: 1.91
  ΣlogK1–4^H: 29.21
[7]
  excretion of the [Al18F]-labelled complex in vivo: rapid hepatobiliary and renal excretion
[7]; in vivo
  accumulation in the bones of the [Al18F]-labelled complex: low accumulation in the bones
[2]
  logβAlLH−1: 11.7 (1)
  logKAlLH−1: 6.94 (6)
  logKAlL: 18.6 (1) ^d
[8]
  logK1^H: 12.0 (1) ^b
  logK2^H: 9.92 (5) ^b

## O=C(O)CN(CCN(CC(=O)O)CC(=O)O)CC(=O)O [EDTA]
[4]; 0.15 M NaNO3, 25 °C
  logK1^H: 9.40
  logK2^H: 6.10
  logK3^H: 2.72
  logK4^H: 2.08
  logK5^H: 1.23
  ΣlogK1–4^H: 20.30
[9]
  logKAlLH−1: 6.0 ^e
  logβAlLH−1: 10.5 ^e
  logKAlL: 16.5 ^e

## O=C(O)CN(CC(=O)O)[C@@H]1CCCC[C@H]1N(CC(=O)O)CC(=O)O (relative stereo) [CDTA, trans-1,2-diaminocyclohexane-N,N,N′,N′-tetraacetic acid]
[4]; 0.15 M NaNO3, 25 °C
  logK1^H: 9.54
  logK2^H: 6.08
  logK3^H: 3.65
  logK4^H: 2.69
  logK5^H: 1.14
  ΣlogK1–4^H: 21.96
[9]
  logKAlLH−1: 7.70 ^e
  logβAlLH−1: 11.2 ^e
  logKAlL: 18.9 ^e

## O=C(O)CN(CC(=O)O)CC1CCCCN1CC(=O)O (stereo not shown) [AMPTA]
[1]
  logK1^H: 11.49 (1)
  logK2^H: 5.56 (4)
  logK3^H: 2.75 (5)
  logK4^H: 1.73 (5)
  ΣlogK1–4^H: 21.53
[4]; 0.15 M NaCl, 25 °C
  logK1^H: 11.67
  logK2^H: 5.47
  logK3^H: 2.74
  logK4^H: 1.62
  ΣlogK1–4^H: 21.50
[2]
  logβAlLH−1: 9.8 (1)
  logKAlLH−1: 5.06 (6)
  logKAlL: 14.9 (1) ^d
